Experimental data reported in US20080227655A1, “Assessment of effect of an agent on a human biological condition using rodent gene expression panels” (priority 2006, published 2008).
Where “and” joins values, the source holds several entries; their conditions need not be identical. Identical values can stand only once.

Test system: custom murine 40-gene Precision Profile for Rheumatoid Arthritis, whole blood
Experiment: Collagen Induced Arthritis (CIA) model, whole blood gene expression by QPCR, vehicle or dexamethasone treatment
Type: in vivo, male DBA/1 mice
Method: Whole blood gene expression changes were evaluated in vehicle control and drug-treated murine subjects across two murine models of arthritis according to the following arthritis models:
KRN Transgenic Mouse (K/B×N): K/B×N serum from transgenic mouse used to induce arthritis in female BALB/c mice (n=54). Collagen Induced Arthritis (CIA): Bovine type II collagen used to induce arthritis in male DBA/1 mice (n=54).
In addition, naïve, untreated animal groups at baseline and terminal day were included to control for potential age-related changes in gene expression over the extended study periods. Animal groups, time-points, and treatment schedules are summarized in Tables 20A and 20B, respectively.
Whole blood samples from animals were collected by retro-orbital bleed at selected time-points in accordance with the arthritis study schemas described in […], and transferred into sample collection tubes containing a 1.5× lysis solution and RPMI. Samples were processed into total RNA and cDNA. […] It was anticipated from these murine models would provide a better understanding of the relevant molecular response of arthritis induction and their potential correlation to the human disease condition.
Normal murine subject reference values (represented as normalized Ct or ΔCt values) were established for male DBA/1 mice (n=6 for the CIA study arm) and female BALB/c mice (n=6 for the KRN study arm). In both arms of the study, gene expression response of normal (naïve, non-immunized and untreated) murine subjects were evaluated in groups of 6 each at day 0 and day 60 for the CIA study arm, and at day 0 and day 21 for the KRN study arm (see Tables 20A and 20B).
Gene expression responses for this arthritis-induced murine model were evaluated for untreated mice at day 24 and vehicle-treated mice at days 33, 42, and 60 to characterize disease progression.

[1] = CIA Day 42 Treated, group Average
[2] = CIA Day 42 Treated, group Average, whole blood
[3] = CIA Day 42 Treated, individual mice
[4] = CIA Day 42 Treated, individual mice, whole blood
[5] = CIA Day 60 Treated, group Average
[6] = CIA Day 60 Treated, group Average, whole blood
[7] = CIA Day 60 Treated, individual mice
[8] = CIA Day 60 Treated, individual mice, whole blood

## C[C@@H]1C[C@H]2[C@@H]3CCC4=CC(=O)C=C[C@]4(C)[C@@]3(F)[C@@H](O)C[C@]2(C)[C@@]1(O)C(=O)CO [Dexamethasone]
[1]
  CD19_M Normalized CT Value (Delta CT), Average: 17.41
  CD32_M Normalized CT Value (Delta CT), Average: 19.18
  CD86_M Normalized CT Value (Delta CT), Average: 22.86
  CSPG2_M Normalized CT Value (Delta CT), Average: 18.40
  F3_M Normalized CT Value (Delta CT), Average: 24.19
  HMOX1—M Normalized CT Value (Delta CT), Average: 17.42
  HSPA1A—M Normalized CT Value (Delta CT), Average: 22.06
  ICAM1—M Normalized CT Value (Delta CT), Average: 19.40
  IFI16_M Normalized CT Value (Delta CT), Average: 18.56
  IL1A_M Normalized CT Value (Delta CT), Average: 24.26
  IL1B_M Normalized CT Value (Delta CT), Average: 14.10
  IL10_M Normalized CT Value (Delta CT), Average: 25.70
[2]
  Normalized CT (Delta CT) IL1RAP_M: 18.00
  Normalized CT (Delta CT) IL1RN—M: 17.54
  Normalized CT (Delta CT) IL6_M: 24.59
  Normalized CT (Delta CT) JUN_M: 20.13
  Normalized CT (Delta CT) MEF2C—M: 19.65
  Normalized CT (Delta CT) NFKB1—M: 17.40
  Normalized CT (Delta CT) PADI4—M: 17.97
  Normalized CT (Delta CT) PLA2G7—M: 14.89
[3]
  ABCA1_M Normalized CT Value (Delta CT): 19.25 and 19.03 and 20.65 and 19.18 and 18.65 and 19.31
  APAF1_M Normalized CT Value (Delta CT): 20.34 and 19.23 and 20.02 and 18.89 and 19.10 and 20.01
  ARG2_M Normalized CT Value (Delta CT): 18.59 and 17.70 and 18.13 and 17.87 and 17.07 and 18.04
  CASP1_M Normalized CT Value (Delta CT): 19.07 and 17.95 and 20.08 and 18.16 and 18.00 and 18.03
  CASP3_M Normalized CT Value (Delta CT): 18.26 and 18.13 and 18.40 and 18.45 and 17.48 and 17.70
  CCR3_M Normalized CT Value (Delta CT): 19.92 and 18.94 and 19.77 and 19.05 and 19.94
  CD8A_M Normalized CT Value (Delta CT): 19.05 and 19.19 and 19.47 (2×) and 19.54 and 21.24
  CD14_M Normalized CT Value (Delta CT): 18.22 and 17.59 and 18.17 and 17.46 and 16.46 and 17.49
  CD19_M Normalized CT Value (Delta CT): 17.83 and 18.59 and 17.22
  CD32_M Normalized CT Value (Delta CT): 19.54 and 18.75 and 20.05 and 19.32 and 18.31 and 19.12
  CD86_M Normalized CT Value (Delta CT): 22.76 and 21.99 and 24.40 and 22.29 and 22.95 and 22.75
  CSPG2_M Normalized CT Value (Delta CT): 17.53 and 18.70 and 18.64 and 18.36 and 19.59 and 17.59
  F3_M Normalized CT Value (Delta CT): 21.92 and 24.08 and 25.50 and 24.56 and 23.94 and 25.11
  HMOX1—M Normalized CT Value (Delta CT): 15.87 and 17.25 and 18.49 and 17.66 and 17.84 and 17.40
  HSPA1A—M Normalized CT Value (Delta CT): 21.34 and 22.12 and 22.63 and 20.82 and 23.83 and 21.63
  ICAM1—M Normalized CT Value (Delta CT): 18.58 and 19.08 and 19.89 and 19.37 and 20.27 and 19.24
  IFI16_M Normalized CT Value (Delta CT): 17.87 and 17.97 and 18.60 and 18.06 and 20.80 and 18.04
  IL1A_M Normalized CT Value (Delta CT): 24.26
  IL1B_M Normalized CT Value (Delta CT): 13.49 and 14.12 and 14.22 and 14.25 and 14.38 and 14.15
  IL10_M Normalized CT Value (Delta CT): 25.44 (2×) and 25.71 and 25.64 and 25.84 and 26.13
[4]
  Normalized CT (Delta CT) IL1RAP_M: 17.46 and 17.94 and 18.31 and 18.38 and 17.99 and 17.91
  Normalized CT (Delta CT) IL1RN—M: 16.89 and 17.57 and 17.94 and 17.76 and 17.56 and 17.53
  Normalized CT (Delta CT) IL6_M: 24.11 and 25.01 and 23.38 and 25.34 and 25.09
  Normalized CT (Delta CT) JUN_M: 19.54 and 19.51 and 20.43 and 19.81 and 21.67 and 19.83
  Normalized CT (Delta CT) MEF2C—M: 19.72 and 19.12 and 19.89 and 19.47 and 20.04 and 19.64
  Normalized CT (Delta CT) NFKB1—M: 17.25 and 16.83 and 17.27 and 16.97 and 18.81 and 17.26
  Normalized CT (Delta CT) PADI4—M: 17.57 and 18.02 and 17.98 (2×) and 18.35 and 17.91
  Normalized CT (Delta CT) PLA2G7—M: 14.60 and 14.83 and 15.02 and 14.96 and 15.09 and 14.82
[5]
  ABCA1_M Normalized CT Value (Delta CT), Average: 18.01
  APAF1_M Normalized CT Value (Delta CT), Average: 18.94
  ARG2_M Normalized CT Value (Delta CT), Average: 17.62
  CASP1_M Normalized CT Value (Delta CT), Average: 18.09
  CASP3_M Normalized CT Value (Delta CT), Average: 17.44
  CCR3_M Normalized CT Value (Delta CT), Average: 20.02
  CD14_M Normalized CT Value (Delta CT), Average: 17.08
  CD32_M Normalized CT Value (Delta CT), Average: 18.46
  CD86_M Normalized CT Value (Delta CT), Average: 22.22
[6]
  Normalized CT (Delta CT) IL1RAP_M: 18.09
  Normalized CT (Delta CT) IL1RN—M: 17.39
  Normalized CT (Delta CT) IL6_M: 24.58
  Normalized CT (Delta CT) JUN_M: 19.44
  Normalized CT (Delta CT) MEF2C—M: 19.42
  Normalized CT (Delta CT) NFKB1—M: 16.65
  Normalized CT (Delta CT) PADI4—M: 18.36
  Normalized CT (Delta CT) PLA2G7—M: 14.66
[7]
  ABCA1_M Normalized CT Value (Delta CT): 18.15 and 17.43 and 18.02 and 18.03 and 18.50 and 17.95
  APAF1_M Normalized CT Value (Delta CT): 18.90 and 18.40 and 19.28 and 18.97 and 19.36 and 18.75
  ARG2_M Normalized CT Value (Delta CT): 17.69 and 17.21 and 17.86 and 17.73 and 18.48 and 16.78
  CASP1_M Normalized CT Value (Delta CT): 17.78 and 17.53 and 18.19 and 18.75 and 18.66 and 17.61
  CASP3_M Normalized CT Value (Delta CT): 17.72 and 17.06 and 17.22 and 17.97 and 17.46 and 17.18
  CCR3_M Normalized CT Value (Delta CT): 20.33 and 18.57 and 20.17 and 20.39 and 21.29 and 19.38
  CD14_M Normalized CT Value (Delta CT): 17.31 and 16.84 (2×) and 17.24 and 17.32 and 16.92
  CD32_M Normalized CT Value (Delta CT): 18.41 and 17.86 and 18.35 and 18.90 and 18.54 and 18.72
  CD86_M Normalized CT Value (Delta CT): 22.26 and 21.38 and 22.48 and 22.41 and 22.40 and 22.37
[8]
  Normalized CT (Delta CT) IL1RAP_M: 18.11 and 18.37 and 18.06 and 18.23 and 18.26 and 17.51
  Normalized CT (Delta CT) IL1RN—M: 17.45 and 17.37 and 17.66 and 17.72 and 17.62 and 16.51
  Normalized CT (Delta CT) IL6_M: 25.14 and 24.12 and 24.79 and 25.54 and 25.20 and 22.67
  Normalized CT (Delta CT) JUN_M: 19.63 and 19.39 and 19.44 (2×) and 19.07 and 19.67
  Normalized CT (Delta CT) MEF2C—M: 19.42 and 19.06 and 19.35 and 19.73 and 19.55 and 19.41
  Normalized CT (Delta CT) NFKB1—M: 16.72 and 16.41 and 16.30 and 16.95 and 16.80 and 16.73
  Normalized CT (Delta CT) PADI4—M: 18.90 and 18.59 and 18.29 and 18.10 and 18.41 and 17.84
  Normalized CT (Delta CT) PLA2G7—M: 14.78 and 14.34 and 14.76 and 14.77 and 14.96 and 14.35
  Normalized CT (Delta CT), column 9, gene sub-head of this block not shown: 24.31
